Reference: US10800772B2 (Gilead Sciences, Inc., priority 2016, dated 2020)

Columns and labels:
Format in all cases: cell-based, HIV-1
HIV-IIIb (wildtype) = test: Antiviral assay in MT4 cells, HIV-IIIb wildtype; conditions: Human immunodeficiency virus 1, IIIB, MT4, 120 h, read-out: WT EC50
How it was run: (§1)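 Compounds were titrated as 3-fold serial dilutions at 10 concentrations, in quadruplicate, against 2000 MT4 cells/well that had been infected for 3 h with HIV-IIIb at 0.004 m.o.i. Viruses were wildtype or integrase T174I mutants from breakthrough selection or dose-escalation passaging; mock-infected cells were run in parallel. After 5 days' culture, EC50 was derived as 50% reduction of CellTiter-Glo luminescence, which reflects HIV-1 replication.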

HIV-IIIb IN T174I DE = test: Antiviral assay in MT4 cells, HIV-IIIb IN T174I DE virus (from dose escalation passaging); conditions: Human immunodeficiency virus 1, IIIB, MT4, 120 h, read-out: T174I DE EC50, MT4 cells, HIV-IIIb IN T174I DE (dose escalation), 5 days, CellTiter-Glo
How it was run: as §1

HIV-IIIb IN T174I BT = test: Antiviral assay in MT4 cells, HIV-IIIb IN T174I BT virus (from viral breakthrough); conditions: Human immunodeficiency virus 1, IIIB, MT4, 120 h, read-out: T174I BT EC50, MT4 cells, HIV-IIIb IN T174I BT (viral breakthrough), 5 days, CellTiter-Glo
How it was run: as §1

| Compound | EC50 (HIV-IIIb (wildtype)) | EC50 (HIV-IIIb IN T174I DE) | EC50 (HIV-IIIb IN T174I BT) |
| --- | --- | --- | --- |
| COC(=O)N1CC[C@H]1CN1CCC(c2nn(C)c3ccc(-c4nc5cc(C)c([C@H](OC(C)(C)C)C(=O)O)c(-c6ccc(Cl)cc6)c5s4)cc23)CC1 [Compound 150, (S)-2-(tert-butoxy)-2-(7-(4-chloro-phenyl)-2-(3-(1-(((S)-1-(methoxy-carbonyl)azetidin-2-yl)methyl)piperidin-4-yl)-1-methyl-1H-indazol-5-yl)-5-methyl-benzo[d]thiazol-6-yl)acetic acid] | 4 nM | 182 nM | 214 nM |
| CC(=O)N1CC[C@H]1CN1CCC(c2nn(C)c3ccc(-c4nc5cc(C)c([C@H](OC(C)(C)C)C(=O)O)c(-c6ccc(Cl)cc6)c5s4)cc23)CC1 [Compound 151, (S)-2-(2-(3-(1-(((S)-1-acetyl-azetidin-2-yl)methyl)piperidin-4-yl)-1-methyl-1H-indazol-5-yl)-7-(4-chloro-phenyl)-5-methylbenzo[d]thiazol-6-yl)-2-(tert-butoxy) acetic acid] | 16 nM | 231 nM | 237 nM |
| Cc1cc2nc(-c3ccc4c(c3)c(C3CCN(C5CN(C(=O)C6CC6)C5)CC3)nn4C)sc2c(-c2ccc(Cl)cc2)c1[C@H](OC(C)(C)C)C(=O)O [Compound 152, (S)-2-(tert-butoxy)-2-(7-(4-chloro-phenyl)-2-(3-(1-(1-(cyclopropane-carbonyl)azetidin-3-yl)piperidin-4-yl)-1-methyl-1H-indazol-5-yl)-5-methylbenzo[d]thiazol-6-yl) acetic acid] | 23 nM | 210 nM | 175 nM |
| COC(=O)N1CC(N2CCC(c3nn(C)c4ccc(-c5nc6cc(C)c([C@H](OC(C)(C)C)C(=O)O)c(-c7ccc(Cl)cc7)c6s5)cc34)CC2)C1 [Compound 153, (S)-2-(tert-butoxy)-2-(7-(4-chloro-phenyl)-2-(3-(1-(1-(methoxycarbonyl)azetidin-3-yl)piperidin-4-yl)-1-methyl-1H-indazol-5-yl)-5-methyl-benzo[d]thiazol-6-yl)acetic acid] | 11 nM | 217 nM | 159 nM |
| Cc1cc2nc(-c3ccc4c(c3)c(C3CCN(C5CC(F)(F)C5)CC3)nn4C)sc2c(-c2ccc(Cl)cc2)c1[C@H](OC(C)(C)C)C(=O)O [Compound 155, (S)-2-(tert-butoxy)-2-(7-(4-chloro-phenyl)-2-(3-(1-(3,3-difluorocyclo-butyl)piperidin-4-yl)-1-methyl-1H-indazol-5-yl)-5-methylbenzo[d]thiazol-6-yl) acetic acid] | 13 nM | 1920 nM | 922 nM |
| Cc1cc2nc(-c3ccc4c(c3)c(C3CCN(C(=O)[C@@H]5CCCO5)CC3)nn4C)sc2c(-c2ccc(Cl)cc2)c1[C@H](OC(C)(C)C)C(=O)O [Compound 157, (S)-2-(tert-butoxy)-2-(7-(4-chloro-phenyl)-5-methyl-2-(1-methyl-3-(1-((S)-tetrahydrofuran-2-carbonyl)piperidin-4-yl)-1H-indazol-5-yl)benzo[d]thiazol-6-yl)acetic acid] | 11 nM | 789 nM | 620 nM |
| Cc1cc2nc(-c3ccc4c(c3)c(C3CCN(C(=O)C5(C)CCCO5)CC3)nn4C)sc2c(-c2ccc(Cl)cc2)c1[C@H](OC(C)(C)C)C(=O)O (stereo partly drawn) [Compound 158, (2S)-2-(tert-butoxy)-2-(7-(4-chloro-phenyl)-5-methyl-2-(1-methyl-3-(1-(2-methyltetrahydro-furan-2-carbonyl)piperidin-4-yl)-1H-indazol-5-yl)benzo [d]thiazol-6-yl) acetic acid] | 11 nM | 1670 nM | 1300 nM |
| Cc1cc2nc(-c3ccc4c(c3)c(C3CCN(C(=O)C5CCO5)CC3)nn4C)sc2c(-c2ccc(Cl)cc2)c1[C@H](OC(C)(C)C)C(=O)O (stereo partly drawn) [Compound 159, (2S)-2-(tert-butoxy)-2-(7-(4-chloro-phenyl)-5-methyl-2-(1-methyl-3-(1-(oxetane-2-carbonyl)piperidin-4-yl)-1H-indazol-5-yl)benzo[d]thiazol-6-yl) acetic acid] | 11 nM | 583 nM | 430 nM |
| Cc1cc2nc(-c3ccc4c(c3)c(C3CCN(C(=O)C5(C)COC5)CC3)nn4C)sc2c(-c2ccc(Cl)cc2)c1[C@H](OC(C)(C)C)C(=O)O [Compound 160, (S)-2-(tert-butoxy)-2-(7-(4-chloro-phenyl)-5-methyl-2-(1-methyl-3-(1-(3-methyloxetane-3-carbonyl)piperidin-4-yl)-1H-indazol-5-yl)benzo[d]thiazol-6-yl)acetic acid] | 15 nM | 756 nM | 375 nM |
| Cc1cc2nc(-c3ccc4c(c3)c(C3CCN(C(=O)C5COC5)CC3)nn4C)sc2c(-c2ccc(Cl)cc2)c1[C@H](OC(C)(C)C)C(=O)O [Compound 161, (S)-2-(tert-butoxy)-2-(7-(4-chloro-phenyl)-5-methyl-2-(1-methyl-3-(1-(oxetane-3-carbonyl)piperidin-4-yl)-1H-indazol-5-yl)benzo[d]thiazol-6-yl)acetic acid] | 18 nM | 600 nM | 316 nM |
| COC(=O)N1CC[C@H](N2CCC(c3nn(C)c4ccc(-c5nc6cc(C)c([C@H](OC(C)(C)C)C(=O)O)c(-c7ccc(Cl)cc7)c6s5)cc34)CC2)C1 [Compound 162, (S)-2-(tert-butoxy)-2-(7-(4-chloro-phenyl)-2-(3-(1-((S)-1-(methoxy-carbonyl)pyrrolidin-3-yl)piperidin-4-yl)-1-methyl-1H-indazol-5-yl)-5-methylbenzo[d]thiazol-6-yl) acetic acid] | 5 nM | 272 nM | 149 nM |
| Cc1cc2nc(-c3ccc4c(c3)c(C3CCN([C@@H]5CCN(C)C5)CC3)nn4C)sc2c(-c2ccc(Cl)cc2)c1[C@H](OC(C)(C)C)C(=O)O [Compound 164, (S)-2-(tert-butoxy)-2-(7-(4-chloro-phenyl)-5-methyl-2-(1-methyl-3-(1-((R)-1-methyl-pyrrolidin-3-yl)piperidin-4-yl)-1H-indazol-5-yl)benzo[d]thiazol-6-yl)acetic acid] | 15 nM | 183 nM | 184 nM |
| COC(=O)N1CC[C@@H](N2CCC(c3nn(C)c4ccc(-c5nc6cc(C)c([C@H](OC(C)(C)C)C(=O)O)c(-c7ccc(Cl)cc7)c6s5)cc34)CC2)C1 [Compound 165, (S)-2-(tert-butoxy)-2-(7-(4-chloro-phenyl)-2-(3-(1-((R)-1-(methoxy-carbonyl)pyrrolidin-3-yl)piperidin-4-yl)-1-methyl-1H-indazol-5-yl)-5-methylbenzo[d]thiazol-6-yl) acetic acid] | 5 nM | 182 nM | 118 nM |
| COC(=O)N1CC(N2CCC(c3nn(C)c4ccc(-c5nc6cc(C)c([C@H](OC(C)(C)C)C(=O)O)c(-c7ccc(Cl)cc7)c6s5)nc34)CC2)C1 [Compound 167, (S)-2-(tert-butoxy)-2-(7-(4-chloro-phenyl)-2-(3-(1-(1-(methoxycarbonyl)azetidin-3-yl)piperidin-4-yl)-1-methyl-1H-pyrazolo[4,3-b]pyridin-5-yl)-5-methylbenzo[d]thiazol-6-yl) acetic acid] | 3 nM | 138 nM | 57 nM |
| Cc1cc2nc(-c3ccc4c(n3)c(C3CCN(C5CN(C(=O)OC(C)C)C5)CC3)nn4C)sc2c(-c2ccc(Cl)cc2)c1[C@H](OC(C)(C)C)C(=O)O [Compound 168, (S)-2-(tert-butoxy)-2-(7-(4-chloro-phenyl)-2-(3-(1-(1-(isopropoxy-carbonyl)azetidin-3-yl)piperidin-4-yl)-1-methyl-1H-pyrazolo[4,3-b]pyridin-5-yl)-5-methylbenzo[d]thiazol-6-yl) acetic acid] | 11 nM | 456 nM | 230 nM |
| Cc1cc2nc(-c3ccc4c(n3)c(C3CCN([C@@H]5CCN(C)C5)CC3)nn4C)sc2c(-c2ccc(Cl)cc2)c1[C@H](OC(C)(C)C)C(=O)O [Compound 171, (S)-2-(tert-butoxy)-2-(7-(4-chloro-phenyl)-5-methyl-2-(1-methyl-3-(1-((R)-1-methyl-pyrrolidin-3-yl)piperidin-4-yl)-1H-pyrazolo[4,3-b]pyridin-5-yl)benzo[d]thiazol-6-yl)acetic acid] | 5 nM | 239 nM | 98 nM |
| Cc1cc2nc(-c3ccc4[nH]nc(C5CCN(C6COC6)CC5)c4n3)sc2c(-c2ccc(Cl)cc2)c1[C@H](OC(C)(C)C)C(=O)O [Compound 174, (S)-2-(tert-butoxy)-2-(7-(4-chloro-phenyl)-5-methyl-2-(3-(1-(oxetan-3-yl)piperidin-4-yl)-1H-pyrazolo [4,3-b]pyridin-5-yl)benzo[d]thiazol-6-yl)acetic acid] | 11 nM | 587 nM | 219 nM |
| [2H]C([2H])([2H])n1nc(C2CCN(C3COC3)CC2)c2nc(-c3nc4cc(C)c([C@H](OC(C)(C)C)C(=O)O)c(-c5ccc(Cl)cc5)c4s3)ccc21 [Compound 176, (S)-2-(tert-butoxy)-2-(7-(4-chloro-phenyl)-5-methyl-2-(1-(methyl-d3)-3-(1-(oxetan-3-yl)piperidin-4-yl)-1H-pyrazolo[4,3-b]pyridin-5-yl)benzo[d]thiazol-6-yl)acetic acid] | 3 nM | 214 nM | 85 nM |
| CCn1nc(C2CCN(C3COC3)CC2)c2nc(-c3nc4cc(C)c([C@H](OC(C)(C)C)C(=O)O)c(-c5ccc(Cl)cc5)c4s3)ccc21 [Compound 177, (S)-2-(tert-butoxy)-2-(7-(4-chloro-phenyl)-2-(1-ethyl-3-(1-(oxetan-3-yl)piperidin-4-yl)-1H-pyrazolo[4,3-b]pyridin-5-yl)-5-methylbenzo[d]thiazol-6-yl) acetic acid] | 3 nM | 185 nM | 47 nM |
